Columns and labels:
Parameters in all cases: key: 0: normal development; 1: Less damaged; 2: Slightly damaged; 3: Moderately damaged; 4: Severely damaged; 5: All killed
[1] = test system: green foxtail; test: Foliar spread test for upland field; format: in vivo, Setaria viridis; settings: foliar spray 500 ppm, 3 weeks, rank vs non-treated
How it was run: (§1)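 Scoring used a 0–5 scale, where 0 meant normal development and 5 meant all plants killed, assessed 3 weeks after treatment. Plants had been grown about 2 weeks from seed in volcanic ash soil before a uniform spray at 500 ppm containing 0.5% surfactant.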

[2] = test system: green foxtail; test: Soil treatment test for upland field; format: in vivo, Setaria viridis; settings: 500 g/ha, glass house 25° C., 3 weeks
How it was run: (§2)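 Visual 0–5 damage rating recorded 3 weeks after a pre-emergence soil spray of 500 g/ha on seeded Ube alluvial soil, with plants held in a glasshouse near 25° C.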

[3] = test system: common lambsquartes; test: Soil treatment test for upland field; format: in vivo, Chenopodium album; settings: 500 g/ha, glass house 25° C., 3 weeks
How it was run: as §2

[4] = test system: velvetleaf; test: Foliar spread test for upland field; format: in vivo, Abutilon theophrasti; settings: foliar spray 500 ppm, 3 weeks, rank vs non-treated
How it was run: as §1

[5] = test system: Large crabgrass; test: Foliar spread test for upland field; format: in vivo, Digitaria adscendens; settings: foliar spray 500 ppm, 3 weeks, rank vs non-treated
How it was run: as §1

[6] = test system: bulrush; test: Herbicidal test for paddy field; format: in vivo, Scrips juncoides; settings: paddy field pot, 500 g/ha dropwise at 1.5 leaf stage of barnyardgrass, 3 weeks, rank vs non-treated
How it was run: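 Scores run on a six-point scale from 0 for normal development to 5 for all plants killed, judged against non-treated pots. Plants were grown in Ube soil under 3 cm of standing water and treated by pipet with 500 g/ha of the compound once barnyardgrass had 1.5 leaves. Assessment followed 3 weeks in a glasshouse averaging 25° C.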

[7] = test system: wheat; test: Foliar spread test for upland field; format: in vivo; settings: foliar spray 500 ppm, 3 weeks, rank vs non-treated
How it was run: as §1

[8] = test system: corn; test: Foliar spread test for upland field; format: in vivo; settings: foliar spray 500 ppm, 3 weeks, rank vs non-treated
How it was run: as §1

[9] = test system: solgum; test: Foliar spread test for upland field; format: in vivo; settings: foliar spray 500 ppm, 3 weeks, rank vs non-treated
How it was run: as §1

[10] = test system: cotton; test: Foliar spread test for upland field; format: in vivo; settings: foliar spray 500 ppm, 3 weeks, rank vs non-treated
How it was run: as §1

[11] = test system: soybean; test: Foliar spread test for upland field; format: in vivo; settings: foliar spray 500 ppm, 3 weeks, rank vs non-treated
How it was run: as §1

[12] = test system: sugar beat; test: Foliar spread test for upland field; format: in vivo; settings: foliar spray 500 ppm, 3 weeks, rank vs non-treated
How it was run: as §1

[13] = test system: barnyardgrass; test: Foliar spread test for upland field; format: in vivo, Echinochloa crusgalli; settings: foliar spray 500 ppm, 3 weeks, rank vs non-treated
How it was run: as §1

[14] = test system: velvetleaf; test: Soil treatment test for upland field; format: in vivo, Abutilon theophrasti; settings: 500 g/ha, glass house 25° C., 3 weeks
How it was run: as §2

| SMILES | Effects Green foxtail [1] | Effects Green foxtail [2] | Effects Common lambsquarters [3] | Effects Velvetleaf [4] | Effects Large crabgrass [5] | Effect Bulrush [6] | Effects Wheat [7] | Effects Corn [8] | Effects Solgum [9] | Effects Cotton [10] | Effects Soybean [11] | Effects Sugar beat [12] | Effects Barnyardgrass [13] | Effects Velvetleaf [14] |
| --- | --- | --- | --- | --- | --- | --- | --- | --- | --- | --- | --- | --- | --- | --- |
| CC(Oc1ccc(F)c(C(F)(F)F)c1)c1nc2cc(Cl)ccc2o1 (stereo not drawn) [Compound 137] | 3 | 5 | 2 | 1 | 1 | 3 | 1 | 2 | 1 | 2 | 3 | 5 |  |  |
| CCC(Oc1ccc(F)c(C(F)(F)F)c1)c1nc2cc(Cl)ccc2o1 (stereo not drawn) [Compound 139] | 4 | 5 | 4 | 3 | 2 | 5 | 2 | 3 | 2 | 3 | 5 |  | 2 | 5 |
| CCC(Oc1cccc(C(F)(F)F)c1)c1nc2cc(Cl)ccc2o1 (stereo not drawn) [Compound 140] | 2 | 5 | 4 | 2 | 2 |  | 2 | 3 | 2 | 3 | 3 | 3 | 2 | 1 |
| CCCC(Oc1ccc(F)c(C(F)(F)F)c1)c1nc2cc(Cl)ccc2o1 (stereo not drawn) [Compound 141] | 4 | 5 | 5 | 4 | 4 | 5 | 2 | 2 | 1 | 3 | 4 |  | 4 | 5 |
| CCCC(Oc1cccc(C(F)(F)F)c1)c1nc2cc(Cl)ccc2o1 (stereo not drawn) [Compound 142, 1-(5-chlorobenzoxazol-2-yl)-1-(3-(trifluoromethyl)phenoxy)butane] | 2 | 5 | 5 | 3 | 3 | 3 | 3 | 3 | 2 | 3 | 4 | 3 | 2 | 5 |
| CCC(Oc1ccc(F)c(C(F)(F)F)c1)c1nc2cc(C(F)(F)F)ccc2o1 (stereo not drawn) [Compound 197] | 5 | 5 | 4 | 3 | 3 |  | 2 | 4 | 2 | 3 | 5 |  | 1 | 5 |
| CCCC(Oc1ccc(F)c(C(F)(F)F)c1)c1nc2cc(C(F)(F)F)ccc2o1 (stereo not drawn) [Compound 199] | 2 | 5 | 5 | 4 | 2 | 5 | 1 | 2 | 1 | 3 | 4 | 3 | 2 | 5 |
| CCCC(Oc1cccc(C(F)(F)F)c1)c1nc2cc(C(F)(F)F)ccc2o1 (stereo not drawn) [Compound 200] | 5 | 5 | 4 | 2 | 3 | 2 | 2 | 2 | 2 | 3 | 3 | 4 | 2 | 5 |
| CCC(Oc1cccc(C(F)(F)F)c1)c1nc2cc(C#N)c(C#N)cc2o1 (stereo not drawn) [Compound 315] | 5 | 5 | 4 | 4 | 2 | 2 | 2 | 1 | 2 |  |  | 5 |  | 5 |
| CCC(Oc1cccc(C(F)(F)F)c1)c1nc2cc(Cl)c(C)cc2o1 (stereo not drawn) [Compound 339, 1-(5-chloro-6-methylbenzoxazol-2-yl)-1-(3-(trifluoromethyl)phenoxy)propane] | 2 | 5 | 4 | 2 | 3 | 4 | 1 | 2 | 1 | 3 | 3 | 3 | 2 | 4 |
| CCCC(Oc1cccc(C(F)(F)F)c1)c1nc2cc(F)c(C(F)(F)F)cc2o1 (stereo not drawn) [Compound 474] | 5 | 5 | 5 | 2 | 5 |  | 2 | 2 | 2 |  |  | 5 |  | 5 |
| CCCC(Oc1ccc(F)c(C(F)(F)F)c1)c1nc2cc(F)c(Cl)cc2o1 (stereo not drawn) [Compound 494] | 3 | 5 | 4 | 2 |  | 3 | 1 | 2 | 1 | 2 |  | 3 |  | 3 |
| CCCC(Oc1cccc(C(F)(F)F)c1)c1nc2cc(F)c(Cl)cc2o1 (stereo not drawn) [Compound 497] | 4 | 5 | 5 | 3 | 2 | 2 | 2 | 2 | 1 | 2 |  | 5 |  | 3 |
| CCC(Oc1cccc(C#N)c1)c1nc2cc(F)c(Cl)cc2o1 (stereo not drawn) [Compound 498] | 4 | 5 | 5 | 2 | 3 | 3 | 2 | 1 | 1 |  |  | 4 |  | 3 |

— patent publication US6706664B1, “Benzoxazole compounds, process for the preparation thereof and herbicides” (UBE Industries, Ltd., priority 1999, dated 2004)
